US8097585B2, “Methods of treating inflammation by administration of heme oxygenase-1 and products of heme degradation” (priority 2002, dated 2012)

What was measured:
DSS-colitis = DSS-colitis (acute colitis) mouse model: weight loss, DAI, symptoms, crypt score; format: in vivo, C57BL/6 mice
Excerpt: Animals. Pathogen-free male C57BL/6 mice, 4-6 weeks of age (Taconic; C57BL/6×129 svj strain) were used in this example. Mice were kept for one week at 4 mice/cage and fed normal laboratory chow and drinking water ad libitum prior to the experiments. All mice weighed between 22.5 g and 27.7 g at the beginning of the trial. The animal experimentation protocol was reviewed and approved by the Animal Care and Use Committees of the Beth Israel Deaconess Medical Center.
Induction of Colitis. Colitis was induced by feeding mice 5% (wt/v) dextran sodium sulfate (DSS) (MW 40,000; ICN Biomedicals Inc., OH), dissolved in distilled water, for a period of 7 days. The resulting condition was termed “DSS-colitis.” Control animals were fed distilled water ad libitum. The mortality rate in the control group and the CO-treated group was 10% (2/20) and 14% (2/14), respectively. These animals were excluded from the statistical analysis. In the other groups, no mortality occurred during 7 days of 5% DSS treatment.
Experimental Reagents and Treatment Protocol. Cobalt protoporphyrin (CoPPIX), zinc protoporphyrin (ZnPPIX, Porphyrin Products, Logan, Utah) and biliverdin dihydrochloride (ICN Biomedicals Inc., OH) were dissolved in a small amount 0.2 M NaOH, subsequently adjusted to a pH of 7.4 with 1 M HCl, and diluted in 0.9% NaCl. The stock solutions (CoPPIX and ZnPPIX=1 mg/ml, biliverdin=10 mM) were aliquoted and kept at −70° C. until used. Light exposure was limited as much as possible. CoPPIX (5 mg/kg), ZnPPIX (20 mg/kg) and biliverdin (50 μmol/kg) were administered to the mice intraperitoneally (i.p.) 24 hours before induction of DSS-colitis and daily thereafter. Desferoxamine (DFO) was prepared in imidazole buffer (50 mM imidazole, 220 mM NaCl, pH 7.4). DFO was injected subcutaneously (s.c.) twice daily (125 mg/kg) or infused i.p. (130 mg/kg/day; pumping rate 0.5 μl/hour for 8 days) by miniosmotic Alzet™ pumps (Alza Corporation, Palo Alto, Calif.) (Postma et al., Exp. Parasitol. 89(3):323-30 1998). The pumps were installed i.p. 24 hours before induction of colitis. When animals were sacrificed at day 7 of DSS treatment, the pumps were removed and evaluated to determine if DFO application had taken place.
CO gas was administrated exogenously by putting animals in a CO exposure chamber (Otterbein et al., Nat. Med. 6(4):422-8, 2000). Briefly, CO at a concentration of 1% (10,000 parts per million (ppm)) in compressed air was mixed with balanced air (21% oxygen) in a stainless steel mixing cylinder before entering the exposure chamber. CO concentrations were controlled by varying the flow rates of CO in a mixing cylinder before delivery to the chamber. Because the flow rate is primarily determined by the O2 flow, only the CO flow was changed to deliver the final concentration to the exposure chamber. A CO analyzer (Interscan Corporation, Chatsworth, Calif.) was used to measure CO levels continuously in the chamber. Mice were placed in the chamber 24 hours before the induction of the colitis and were kept in the exposure chamber during the whole period of the experiment (total of 8 days). […] Animals were removed daily from the chamber to assess weight and stool.
Evaluation of Symptoms of Colitis. All animals were evaluated clinically on a daily basis. The evaluation of each animal included a measurement of weight, hemoccult positivity and examination of stool for the presence of gross blood and stool consistency. The disease activity index (DAI) was calculated by scoring percent weight loss, intestinal bleeding (no blood; occult blood=hemoccult+; gross blood) and stool consistency (normal stool=well-formed pellets; loose stool=pasty and semiformed stools; diarrhea=liquid stool that stuck to the anus) (Table 1).
The animals were sacrificed, and the whole colon from the colo-cecal junction to the anal verge was removed and gently cleaned of stool. […]

IL-6 = test: Real time RT-PCR of graft muscularis after SITx, IL-6; format: in vivo, LEW rats; settings: figure legend 23A-23D, graft muscularis 4 hours after transplantation
Protocol: Small Intestinal Transplantation. Orthotopic small intestinal transplantation (SITx) was performed in syngeneic Lewis rats. SITx with caval drainage was performed using a previously described procedure (Murase et al., in Handbook of Animal Models in Transplantation Research, Cramer et al., Eds. CRC Press, Boca Raton, Fla., pp. 203-213 (1994)). […] The graft was perfused via the aortic segment with 5 ml chilled Ringer's lactate solution, and the intestinal lumen was irrigated with 20 ml of cold saline solution containing 0.5% neomycin-sulfate (Sigma, St. Louis, Mo.). End-to-side anastomoses between the graft aorta and the recipient infrarenal aorta, and between the graft portal vein and recipient vena cava, were performed with 10-0 Novafil™ suture. The cold ischemic time was 1 hour. The entire recipient intestine was removed and the enteric continuity was restored by proximal and distal end-to-end intestinal anastomoses. Recipient animals were given 20 mg/day prophylactic cefamandole nafate for 3 postoperative days. Transplanted recipients were given water 3 hours after surgery, and were fed 24 hours after surgery.
(§1) SYBR green real time RT-PCR. The effects of administration of biliverdin on transplant-induced pro-inflammatory and anti-inflammatory gene expression were assessed in muscularis extracts by RT-PCR Biliverdin ([…], i.p.) was administered to both the donor and recipient three hours preoperatively. The muscularis externae was collected from normal intestine and transplanted grafts 4 hours postoperatively and snap frozen in liquid nitrogen. […] Equal aliquots (5 μg) of total RNA from each sample were quantified by spectrophotometry (wavelength […]) and aliquoted at a concentration of 40 ng/μl. Peak mRNA expression was quantified in duplicate by SYBR Green two-step, real-time RT-PCR. […] Real-time PCR data were plotted as the ΔRn fluorescence signal versus the cycle number. […] Quantification of mRNA expression was normalized to GAPDH and calculated relative to control using the comparative CT method (Schmittgen et al., J. Biochem. Biophys. Methods 46(1-2):69-8, 2000). […]

IL-1β = test: Real time RT-PCR of graft muscularis after SITx, IL-1β; format: in vivo, LEW rats; settings: figure legend 23A-23D, graft muscularis 4 hours after transplantation
Protocol: Small Intestinal Transplantation. Orthotopic small intestinal transplantation (SITx) was performed in syngeneic Lewis rats. SITx with caval drainage was performed using a previously described procedure (Murase et al., in Handbook of Animal Models in Transplantation Research, Cramer et al., Eds. CRC Press, Boca Raton, Fla., pp. 203-213 (1994)). […] The graft was perfused via the aortic segment with 5 ml chilled Ringer's lactate solution, and the intestinal lumen was irrigated with 20 ml of cold saline solution containing 0.5% neomycin-sulfate (Sigma, St. Louis, Mo.). […]
as §1, with “preoperatively.” for “preoperatively. The muscularis externae was collected from normal intestine and transplanted grafts 4 hours postoperatively and snap frozen in liquid nitrogen.”

In the case of `[C-]#[O+]` [CO, carbon monoxide], the mortality rate (DSS-colitis; 7 days of 5% DSS, CO exposure chamber 250-400 ppm) is reported as 14%, the “effect on DSS-colitis (weight loss, DAI)” value (DSS-colitis; continuous exposure to 200-400 ppm CO, compared to the control) is reported as “did not have an effect” and the “mean expression of IL-6 mRNA” value (IL-6) is reported as “significantly reduced”. For the same molecule, the “mean expression of IL-1b mRNA” value (IL-1β) was “significantly reduced”.
